The structures appear in SMILES notation. Structures can show the parent of a compound that is named as a salt. Bounds are passed on as bounds.

The target of experiment [1] is CDK9 (Homo sapiens, UniProt P50750). Nature of the experiment: In-vitro kinase inhibitory activity, CDK9 (selectivity). It counts as biochemical. Conditions: read-out: IC50 (half maximal inhibitory concentration, nM) CDK9.
Experiment [2] concerns the target T1, CDK4/CyclinD3 (Homo sapiens, UniProt P11802).
T1 construct: purchased Wuxi Biortus Biosciences Co. Ltd
Nature of the experiment: In-vitro kinase inhibitory activity, CDK4/CyclinD3 (Caliper EZ Reader II mobility shift). Conditions: CDK4/CyclinD3 20 nM, ATP 2 mM, Peptide 1 μM, 27° C., 180 min; read-out: IC50 (half maximal inhibitory concentration, nM) CDK4. It counts as biochemical. The protocol:
The final volume for assay was 16 μL, and the reaction temperature was 27° C. CDK4/CyclinD3 was produced by Wuxi Biortus Biosciences Co. Ltd. The concentration of the kinase was determined by the results of the optimization experiment. The kinase was diluted with an assay buffer (50 mM Tris HCl pH 8.0, 0.01% Tween 20, 50 μg/mL BSA, and 5 mM MgCl2) to obtain a corresponding kinase solution (2.4× concentration). The compound was dissolved in dimethyl sulfoxide (DMSO) to reach a concentration of 10 mM. […] 2 μL of the test compound solution was mixed with 5 μL of the kinase solution, and the mixture was incubated for 10 min. 5 μL of the mixed solution of the polypeptide substrate and ATP was then added. The mixture was incubated at 27° C. for 180 min, and then the reaction was terminated by adding 4 μL of EDTA with a concentration of 120 mM to each sample. […] Each assay was conducted in at least two replicates.
(§1) The final concentrations of the reagents in the assay were as follows. […] The reaction mixture was analyzed on a Caliper EZ Reader II by electrophoretic separation of the fluorescent substrate and the phosphorylated product. Data were calculated by using GraphPad Prism version 6.0 and IC50 values were obtained by adjusting the non-linear regression models of the dose response curves.

Experiment [3] has as its target T2, CDK6/CyclinD3 (Homo sapiens, UniProt Q00534).
T2 construct: purchased Wuxi Biortus Biosciences Co. Ltd
Nature of the experiment: In-vitro kinase inhibitory activity, CDK6/CyclinD3 (Caliper EZ Reader II mobility shift). It counts as biochemical. The settings on record: CDK6/CyclinD3 20 nM, ATP 2 mM, Peptide 1 μM, 27° C., 120 min; read-out: IC50 (half maximal inhibitory concentration, nM) CDK6. The protocol:
The final volume for assay was 16 μL, and the reaction temperature was 27° C. […] The compound was dissolved in dimethyl sulfoxide (DMSO) to reach a concentration of 10 mM. […] 2 μL of the test compound solution was mixed with 5 μL of the kinase solution, and the mixture was incubated for 10 min. 5 μL of the mixed solution of the polypeptide substrate and ATP was then added. The mixture was incubated at 27° C. for 120 min, and then the reaction was terminated by adding 4 μL of EDTA with a concentration of 120 mM to each sample. […] Each assay was conducted in at least two replicates.
as §1

Experiment [4] has as its system human colon cancer COLO205 cells. Nature of the experiment: Growth inhibition of tumor cells cultured in vitro, CellTiter-Glo, COLO205. It counts as cell-based. Conditions: Homo sapiens, COLO 205, 72 h, COLO205, 72 h, CellTiter-Glo. The source says: Test drugs: Compounds of the present disclosure. Tumor cell strains: human colon cancer COLO205 cells and human breast cancer MCF-7 cells.
The growth inhibitory effects on human tumor cells COLO205 and MCF-7 cultured in vitro were observed by using a CellTiter-Glo Luminescent Cell Viability Assay Kit (Promega, Cat. No. G7572). Human tumor cells COLO205 and MCF-7 were both purchased from the American Type Culture Collection.
CellTiter-Glo Luminescent Cell Viability Assay: The previous cell culture medium was discarded, and the tumor cells were rinsed twice with PBS. An appropriate amount of trypsin (VWR, Cat. No. 0458-25G) was added to digest the tumor cells until most of the cells turned round and were detached from the wall. The trypsin digestion was terminated by adding an RPMI-1640 medium (COLO205; Gibco, Cat. No. A10491-01) containing 10% fetal bovine serum (Hyclone, Cat. No. SV30160.03) and MEM medium (MCF-7; Gibco, Cat. No. 10370-021) containing 10% fetal bovine serum and 0.01 mg/mL insulin, and the cells were gently pipetted with a pipette to completely suspend the tumor cells. After cell counting, a tumor cell suspension was prepared using a complete culture medium and the final concentration was 6.7×10^4 cells/mL. 90 μL of the tumor cell suspension was seeded in each well of a 96-well culture plate (6000 cells/well). The plate was then placed in an incubator with 5% CO2 at 37° C. and incubated for 24 h. A test drug was added by using an Agilent Bravo Automated Liquid Handling Platform, and 10 μL of the sample was added in each well. The assay was conducted in triplicate for each group. A compound of the present disclosure was dissolved in DMSO (BioRoYee, Cat. No. AF0231), and then the resulting solution was diluted to 10 μM/L, 3.33 μM/L, 1.11 μM/L, 0.37 μM/L, 0.123 μM/L, 0.041 μM/L, 0.0137 μM/L, 0.0046 μM/L, and 0.0015 μM/L with the culture medium. The concentration of DMSO was lower than 0.1%, and a culture medium containing 0.1% DMSO was added to the well which was set as a vehicle control group. The 96-well plate was placed in an incubator with 5% CO2 at 37° C. and incubated for 72 h. The 96-well plate to be tested was equilibrated at room temperature for 30 min, and 100 μL of Cell Titer-Glo reagent was added to each well. The contents of each well were mixed in an orbital shaker for 2 min to induce cell lysis, and the plate was incubated at room temperature for 10 min to achieve a constant value of fluorescent intensity. Finally, the chemiluminescence intensity was detected by TECAN M1000. Data were processed with Graphpad Prism 6.0 software. The growth curve of the cells was plotted. The cell growth inhibition rate of a drug was calculated, and the half maximal inhibitory concentration (IC50) of the drug was determined.
(In general: In ATP-based viability assays light output follows the ATP content of the culture.)

Sequence of CDK9 (P50750 whole entry, species assumed): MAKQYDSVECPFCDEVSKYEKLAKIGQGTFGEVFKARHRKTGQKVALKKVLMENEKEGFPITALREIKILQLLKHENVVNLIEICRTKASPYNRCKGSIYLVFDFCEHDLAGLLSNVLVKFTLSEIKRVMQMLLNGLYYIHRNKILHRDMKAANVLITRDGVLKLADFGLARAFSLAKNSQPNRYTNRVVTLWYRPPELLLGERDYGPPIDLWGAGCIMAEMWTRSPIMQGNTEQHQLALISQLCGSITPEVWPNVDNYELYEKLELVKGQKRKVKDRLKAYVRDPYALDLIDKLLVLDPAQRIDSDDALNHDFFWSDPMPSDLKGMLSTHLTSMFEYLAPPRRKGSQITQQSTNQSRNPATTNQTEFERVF
Sequence of CDK9 (O60563 whole entry partner, species assumed): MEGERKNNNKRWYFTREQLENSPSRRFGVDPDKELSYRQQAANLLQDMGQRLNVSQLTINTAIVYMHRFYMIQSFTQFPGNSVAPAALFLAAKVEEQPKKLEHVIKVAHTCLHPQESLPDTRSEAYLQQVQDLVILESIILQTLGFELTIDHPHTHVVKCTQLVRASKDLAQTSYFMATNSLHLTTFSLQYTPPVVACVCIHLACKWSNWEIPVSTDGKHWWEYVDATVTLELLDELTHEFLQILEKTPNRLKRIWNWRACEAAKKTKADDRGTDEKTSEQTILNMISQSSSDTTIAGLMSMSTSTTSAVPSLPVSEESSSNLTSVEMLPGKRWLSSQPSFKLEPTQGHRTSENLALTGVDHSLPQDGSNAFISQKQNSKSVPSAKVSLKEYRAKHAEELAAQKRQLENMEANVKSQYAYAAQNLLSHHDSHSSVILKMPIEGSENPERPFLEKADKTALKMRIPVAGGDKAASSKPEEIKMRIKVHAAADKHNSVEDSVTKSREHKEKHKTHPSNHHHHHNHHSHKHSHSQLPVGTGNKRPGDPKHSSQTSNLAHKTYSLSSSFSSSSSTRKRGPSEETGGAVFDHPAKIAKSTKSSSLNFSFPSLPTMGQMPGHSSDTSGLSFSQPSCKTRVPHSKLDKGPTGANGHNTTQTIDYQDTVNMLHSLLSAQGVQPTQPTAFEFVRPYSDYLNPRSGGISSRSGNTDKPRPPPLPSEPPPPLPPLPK
T1 sequence (P11802 whole entry, species assumed): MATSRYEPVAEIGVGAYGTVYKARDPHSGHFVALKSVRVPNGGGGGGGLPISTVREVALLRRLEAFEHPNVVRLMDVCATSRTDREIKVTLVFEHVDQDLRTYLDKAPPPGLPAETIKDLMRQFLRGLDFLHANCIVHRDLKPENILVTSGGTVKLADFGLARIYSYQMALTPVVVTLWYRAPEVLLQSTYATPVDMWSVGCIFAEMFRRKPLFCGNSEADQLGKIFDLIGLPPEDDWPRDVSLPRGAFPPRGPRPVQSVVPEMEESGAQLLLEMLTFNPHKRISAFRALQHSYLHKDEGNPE
T1 sequence (P30281 whole entry partner, species assumed): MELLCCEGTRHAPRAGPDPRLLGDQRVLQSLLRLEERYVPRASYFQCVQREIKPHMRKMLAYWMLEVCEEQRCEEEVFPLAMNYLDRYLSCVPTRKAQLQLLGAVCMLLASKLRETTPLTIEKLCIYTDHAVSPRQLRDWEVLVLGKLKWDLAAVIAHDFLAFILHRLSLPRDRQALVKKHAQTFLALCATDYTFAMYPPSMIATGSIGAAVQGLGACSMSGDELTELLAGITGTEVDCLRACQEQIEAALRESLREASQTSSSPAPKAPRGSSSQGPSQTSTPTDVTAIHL
T2 sequence (Q00534 whole entry, species assumed): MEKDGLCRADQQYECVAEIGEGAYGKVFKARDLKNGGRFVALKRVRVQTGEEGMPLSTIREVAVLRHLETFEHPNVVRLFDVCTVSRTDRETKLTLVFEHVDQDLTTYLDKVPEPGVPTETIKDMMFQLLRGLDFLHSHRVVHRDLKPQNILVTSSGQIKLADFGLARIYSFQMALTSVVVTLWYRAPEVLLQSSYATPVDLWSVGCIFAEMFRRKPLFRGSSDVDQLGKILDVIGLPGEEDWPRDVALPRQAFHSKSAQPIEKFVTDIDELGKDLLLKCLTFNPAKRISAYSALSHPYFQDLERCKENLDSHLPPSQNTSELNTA
T2 sequence (P30281 whole entry partner, species assumed): as the sequence (P30281 whole entry partner, species assumed) above

`COc1cc(N2CCN(CCN3CCN(c4ccc(Nc5ncc6c(C)c(C(C)=O)c(=O)n(C7CCCC7)c6n5)nc4)CC3)CC2)cc2c1C(=O)N(C1CCC(=O)NC1=O)C2` (stereo not drawn) [Compound 17, 3-(5-(4-(2-(4-(6-((6-acetyl-8-cyclopentyl-5-methyl-7-oxo-7,8-dihydropyrido[2,3-d]pyrimidin-2-yl)amino)pyridin-3-yl)piperazin-1-yl)ethyl)piperazin-1-yl)-7-methoxy-1-oxoisoindolin-2-yl)piperidine-2,6-dione dihydrochloride]: the IC50 in experiment [1] is more than 10000 nM; in experiment [2] it was 67.1 nM; in experiment [3], 29.6 nM.

`CN(C)C(=O)c1cc2cnc(Nc3ccc(N4CCN(CCN5CCC(CN6CCN(c7ccc8c(c7)CN(C7CCC(=O)NC7=O)C8=O)CC6)CC5)CC4)cn3)nc2n1C1CCCC1` (stereo not drawn) [Compound 26, 7-cyclopentyl-2-((5-(4-(2-(4-((4-(2-(2,6-dioxopiperidin-3-yl)-1-oxoisoindolin-5-yl)piperazin-1-yl)methyl)piperidin-1-yl)ethyl)piperazin-1-yl)pyridin-2-yl)amino)-N,N-dimethyl-7H-pyrrolo[2,3-d]pyrimidin-6-amide trihydrochloride]: the figures for the IC50 in experiment [1], in experiment [2] and in experiment [3] were 4000 nM, 38.4 nM and 55.2 nM, respectively.

On to `CC(=O)c1c(C)c2cnc(Nc3ccc(N4CCN(CCN5CCC(CN6CCN(c7ccc8c(c7Cl)CN(C7CCC(=O)NC7=O)C8=O)CC6)CC5)CC4)cn3)nc2n(C2CCCC2)c1=O` (stereo not drawn) [Compound 36, 3-(5-(4-((1-(2-(4-(6-((6-acetyl-8-cyclopentyl-5-methyl-7-oxo-7,8-dihydropyrido[2,3-d]pyrimidin-2-yl)amino)pyridin-3-yl)piperazin-1-yl)ethyl)piperidin-4-yl)methyl)piperazin-1-yl)-4-chloro-1-oxoisoindolin-2-yl)piperidine-2,6-dione trihydrochloride], for which the IC50 in experiment [1] was 1480 nM; in experiment [2] it was 12.7 nM; in experiment [4] it was 95.9 nM; in experiment [3], 4.44 nM.

As to `CC(=O)c1c(C)c2cnc(Nc3ccc(N4CCC(CCN5CCC(CC6CCN(c7ccc8c(c7)CN(C7CCC(=O)NC7=O)C8=O)CC6)CC5)CC4)cn3)nc2n(C2CCCC2)c1=O` (stereo not drawn) [Compound 42, 3-(5-(4-((1-(2-(1-(6-((6-acetyl-8-cyclopentyl-5-methyl-7-oxo-7,8-dihydropyrido[2,3-d]pyrimidin-2-yl)amino)pyridin-3-yl)piperidin-4-yl)ethyl)piperidin-4-yl)methyl)piperidin-1-yl)-1-oxoisoindolin-2-yl)piperidine-2,6-dione hydrochloride], the IC50 in experiment [1] is more than 10000 nM; in experiment [2] it was 33.3 nM; in experiment [4], 194 nM; in experiment [3] it was 19.2 nM.

`CC(=O)c1c(C)c2cnc(Nc3ccc(N4CCN(CCN5CCC(CC6CCN(c7ccc8c(c7Cl)CN(C7CCC(=O)NC7=O)C8=O)CC6)CC5)CC4)cn3)nc2n(C2CCCC2)c1=O` (stereo not drawn) [Compound 39, 3-(5-(4-((1-(2-(4-(6-((6-acetyl-8-cyclopentyl-5-methyl-7-oxo-7,8-dihydropyrido[2,3-d]pyrimidin-2-yl)amino)pyridin-3-yl)piperazin-1-yl)ethyl)piperidin-4-yl)methyl)piperidin-1-yl)-4-chloro-1-oxoisoindolin-2-yl)piperidine-2,6-dione dihydrochloride]: the IC50 in experiment [1] was 5760 nM; in experiment [2] it was 56.1 nM; in experiment [4], 440 nM; in experiment [3], 11.3 nM.

`CC(=O)c1c(C)c2cnc(Nc3ccc(N4CCN(CCN5CCN(c6ccc7c(c6Cl)CN(C6CCC(=O)NC6=O)C7=O)CC5)CC4)cn3)nc2n(C2CCCC2)c1=O` (stereo not drawn) [Compound 21, 3-(5-(4-(2-(4-(6-((6-acetyl-8-cyclopentyl-5-methyl-7-oxo-7,8-dihydropyrido[2,3-d]pyrimidin-2-yl)amino)pyridin-3-yl)piperazin-1-yl)ethyl)piperazin-1-yl)-4-chloro-1-oxoisoindolin-2-yl)piperidine-2,6-dione dihydrochloride]: the results for the IC50 in experiment [1], in experiment [2] and in experiment [3] were 3950 nM, 53.2 nM and 37.1 nM, respectively.

Take `CC(=O)c1c(C)c2cnc(Nc3ccc(N4CCN(CCN5CCC(CC6CCN(c7ccc8c(c7)CN([C@H]7CCC(=O)NC7=O)C8=O)CC6)CC5)CC4)cn3)nc2n(C2CCCC2)c1=O` [Compound 38, (S)-3-(5-(4-((1-(2-(4-(6-((6-acetyl-8-cyclopentyl-5-methyl-7-oxo-7,8-dihydropyrido[2,3-d]pyrimidin-2-yl)amino)pyridin-3-yl)piperazin-1-yl)ethyl)piperidin-4-yl)methyl)piperidin-1-yl)-1-oxoisoindolin-2-yl)piperidine-2,6-dione dihydrochloride]: the IC50 in experiment [1] worked out at 1400 nM; in experiment [2], 8.88 nM; in experiment [4], 76.2 nM; in experiment [3], 6.73 nM.

On to `CC(=O)c1c(C)c2cnc(Nc3ccc(N4CCN(CCC5CCN(c6ccc7c(c6)CN(C6CCC(=O)NC6=O)C7=O)CC5)CC4)cn3)nc2n(C2CCCC2)c1=O` (stereo not drawn) [Compound 13, 3-(5-(4-(2-(4-(6-((6-acetyl-8-cyclopentyl-5-methyl-7-oxo-7,8-dihydropyrido[2,3-d]pyrimidin-2-yl)amino)pyridin-3-yl)piperazin-1-yl)ethyl)piperidin-1-yl)-1-oxoisoindolin-2-yl)piperidine-2,6-dione], for which the IC50 in experiment [1] was more than 10000 nM; in experiment [2] it was 71.1 nM; in experiment [4], 59.4 nM; in experiment [3], 26.6 nM.

For `CC(=O)c1c(C)c2cnc(Nc3ccc(N4CCN(CCN5CCC(CC6CCN(c7ccc8c(c7Cl)CN([C@H]7CCC(=O)NC7=O)C8=O)CC6)CC5)CC4)cn3)nc2n(C2CCCC2)c1=O` [Compound 40, (S)-3-(5-(4-((1-(2-(4-(6-((6-acetyl-8-cyclopentyl-5-methyl-7-oxo-7,8-dihydropyrido[2,3-d]pyrimidin-2-yl)amino)pyridin-3-yl)piperazin-1-yl)ethyl)piperidin-4-yl)methyl)piperidin-1-yl)-4-chloro-1-oxoisoindolin-2-yl)piperidine-2,6-dione dihydrochloride], the IC50 is 6810 nM in experiment [1], 55 nM in experiment [2], 50.9 nM in experiment [4] and 23.3 nM in experiment [3].

The values are drawn from patent publication US11485735B2, “Selective CDK4/6 inhibitor and preparation thereof” (Wuxi Shuangliang Biotechnology Co., Ltd., priority 2019, dated 2022).
